Assay results reported in patent US4898855A, “Deuterated analogs of 1,25-dihydroxycholecalciferol” (Hoffman-La Roche Inc., priority 1987, dated 1990).
Where two headings read alike, the source gives them in different places.

Legend:
vitamin D deficient rats = type: in vivo, rat; details: for Bone Mass: histomorphometric
Procedure: Rats were placed on the following protocol. […]
Ten 3 week old rats were maintained on vitamin D3 deficient diet for 6 weeks.
The following parameters in Table III were evaluated, by means which are conventional in the art, after completion the above treatments. Bone mass is measured by known histomorphometric methods.

Bone Ca resorption (BCR) = test: Bone calcium mobilization in rat (plasma Ca increase); type: in vivo; details: 12.5 ng/rat intrajugularly, 18 hours after injection, vitamin D-deficient low calcium diet
Procedure: Male weanling rats (Holtzman, Madison WI.) were housed individually in overhanging wire cages and were fed a vitamin D-deficient diet containing low calcium (0.005%) and normal phosphorus (0.3%). Test compounds were dissolved in 10-20 μl of ethanol. Plasma (1.8 ml), collected from vitamin D, deficient rats was added to the ethanol solution. The test compounds were given intrajugularly in 0.3 ml of the ethanol-plasma carrier solution. Controls received carrier alone.
Bone Ca resorption (BCR) was estimated by mesuring the blood Ca increase in the treated rats. Blood was collected in heparinized tubes and centrifuged. The resulting plasma was measured for calcium concentration by atomic absorption spectroscopy. Since rats were fed a diet essentially devoid of Ca, plasma Ca increases reflected mobilization of Ca from bone, not intestinal Ca absorption.

[1] = tested on: embryonic chick pelvic cartilage; test: Stimulation of avian cartilage growth in vitro (organ culture of embryonic chick pelvic cartilage); details: for Avian cartilage in vitro, % increase, dry weight: 3-day incubation
[2] = tested on: intestinal ^45 Ca transport (ICA); test: Stimulation of intestinal calcium absorption in rat (everted gut sac); type: in vivo; details: 12.5 ng/rat intrajugularly, 18 hours after injection, vitamin D-deficient low calcium diet
[3] = tested on: porcine growth-plate cartilage; test: Stimulation of porcine cartilage growth in vitro (organ culture of fetal pig scapula growth-plates); type: cell-based; details: for Porcine cartilage in vitro, % increase, dry weight: 14-17 days incubation
Procedure: Organ cultures of growth-plates from the scapula cartilages of fetal pigs were performed using methods previously described. (Burch WM, Lebovitz HE (1982) "Triiodothyronine stimulates maturation of porcine growth-plate cartilage in vitro." J. Clin. Investig. (70: 496.) Growth-plates (n=12/treatment group) were isolated aseptically, wet weight obtained, and then placed into individuals wells of 24 well-plastic culture plates. Growth-plates were incubated in 1.5 ml of MEM (Joklik-Modified) containing 0.5% BSA for 14-17 days. The medium was changed and fresh additives introduced every 4-5 days. This medium (MEM) was chosen because it contained antibiotics which allowed relatively long-term culture without contamination. BGJb. (Fitton-Jackson modification) medium with addition of antibiotics has also been used with similar results. At the end of the incubation, growth-plates were weighed for wet weight, then air dried for dry weight. The change in growth-plate wet weights were determined and the cartilages were photographed.

[4] = high dose: daily 60 ng 1,25-(OH)2 D3 or 66 ng Hexa ^2 H, 3 weeks, vitamin D3 deficient diet
[5] = low dose: daily 15 ng 1,25-(OH)2 D3 or 16.5 ng Hexa ^2 H, 3 weeks, vitamin D3 deficient diet

[2H]C([2H])([2H])C(O)(CCC[C@@H](C)[C@H]1CC[C@H]2/C(=C/C=C3/C[C@@H](O)C[C@H](O)C3=C)CCC[C@]12C)C([2H])([2H])[2H] [1,25-(OH)2 D3 -Hexa^2 H, 26,26,26,27,27,27-hexadeutero-1α,25-dihydroxycholecalciferol]
Body Weight (vitamin D deficient rats; [4]): 163 ± 7.2 gr | Serum Ca^2+ (vitamin D deficient rats; [4]): 11.20 ± 0.28 mg/dL | Serum Creatinine (vitamin D deficient rats; [4]): 0.36 ± 0.04 mg/dL | Bone Mass (vitamin D deficient rats; [4]): 371 ± 68 ^mm.spsp.3 /cm^3 | Body Weight (vitamin D deficient rats; [5]): 193 ± 5 gr | Serum Ca^2+ (vitamin D deficient rats; [5]): 11.28 ± 0.26 mg/dL | Serum Creatinine (vitamin D deficient rats; [5]): 0.36 ± 0.02 mg/dL | Bone Mass (vitamin D deficient rats; [5]): 288 ± 58 ^mm.spsp.3 /cm^3 | activity in increasing bone mass compared with 1,25-(OH)2 D3 (vitamin D deficient rats; summary of Table III): more active than 1,25-(OH)2 D3 | activity in inducing hypercalcemia compared with 1,25-(OH)2 D3 (serum Ca^2+) (vitamin D deficient rats; summary of Table III): not as active as 1,25-(OH)2 D3 | % of 1,25-(OH)2 D3 effect in rat, bone calcium mobilization (Bone Ca resorption (BCR)): 64% | Avian cartilage in vitro, % increase, ^3 H proline ([1]; 10^-9 M): 148.3% | Avian cartilage in vitro, % increase, ^35 S ([1]; 10^-9 M): 41.0% | Avian cartilage in vitro, % increase, dry weight ([1]; 10^-9 M): 35.3% | Avian cartilage in vitro, % increase, ^3 H proline ([1]; 10^-10 M): 145.4% | Avian cartilage in vitro, % increase, ^3 H thymidine ([1]; 10^-10 M): 44.3% | Avian cartilage in vitro, % increase, ^35 S ([1]; 10^-10 M): 30.1% | Avian cartilage in vitro, % increase, dry weight ([1]; 10^-10 M): 29.1% | Avian cartilage in vitro, % increase, ^3 H proline ([1]; 10^-11 M): 131.4% | Avian cartilage in vitro, % increase, ^35 S ([1]; 10^-11 M): 26.3% | Avian cartilage in vitro, % increase, dry weight ([1]; 10^-11 M): 29.8% | Avian cartilage in vitro, % increase, ^3 H proline ([1]; 10^-12 M): 65.0% | Avian cartilage in vitro, % increase, ^3 H thymidine ([1]; 10^-12 M): 62.5% | Avian cartilage in vitro, % increase, dry weight ([1]; 10^-12 M): 31.2% | Avian cartilage in vitro, % increase, ^3 H proline ([1]; 10^-13 M): 36.0% | Avian cartilage in vitro, % increase, ^3 H thymidine ([1]; 10^-13 M): 57.9% | Avian cartilage in vitro, % increase, ^35 S ([1]; 10^-13 M): 21.5% | Avian cartilage in vitro, % increase, dry weight ([1]; 10^-13 M): 20.5% | % of 1,25-(OH)2 D3 effect in rat, intestinal calcium absorption [2]: 92% | Porcine cartilage in vitro, % increase, ^3 H ([3]; 10^-10 M): 215.7% | Porcine cartilage in vitro, % increase, ^35 S ([3]; 10^-10 M): 466.0% | Porcine cartilage in vitro, % increase, dry weight ([3]; 10^-10 M): 57.6% | Porcine cartilage in vitro, % increase, ^3 H ([3]; 10^-11 M): 123.6% | Porcine cartilage in vitro, % increase, ^35 S ([3]; 10^-11 M): 203.2% | Porcine cartilage in vitro, % increase, dry weight ([3]; 10^-11 M): 40.9% | Porcine cartilage in vitro, % increase, dry weight ([3]; 10^-12 M): 31.5% | Porcine cartilage in vitro, % increase, dry weight ([3]; 10^-13 M): 29.5%

[2H]C([2H])([2H])C(O)(C([2H])([2H])[2H])C([2H])([2H])CC[C@@H](C)[C@H]1CC[C@H]2/C(=C/C=C3/C[C@@H](O)C[C@H](O)C3=C)CCC[C@]12C [1,25-(OH)2 D3 -Octa^2 H, 24,24,26,26,26,27,27,27-octadeutero-1α,25-dihydroxycholecalciferol]
% of 1,25-(OH)2 D3 effect in rat, bone calcium mobilization (Bone Ca resorption (BCR)): 147% | Avian cartilage in vitro, % increase, ^35 S ([1]; 10^-9 M): 10.8% | Avian cartilage in vitro, % increase, dry weight ([1]; 10^-9 M): 28.0% | Avian cartilage in vitro, % increase, ^3 H thymidine ([1]; 10^-10 M): 25.0% | Avian cartilage in vitro, % increase, dry weight ([1]; 10^-10 M): 21.6% | Avian cartilage in vitro, % increase, ^3 H thymidine ([1]; 10^-11 M): 20.7% | Avian cartilage in vitro, % increase, dry weight ([1]; 10^-11 M): 17.0% | Avian cartilage in vitro, % increase, ^3 H thymidine ([1]; 10^-12 M): 15.3% | Avian cartilage in vitro, % increase, dry weight ([1]; 10^-12 M): 10.3% | Porcine cartilage in vitro, % increase, ^3 H ([3]; 10^-9 M): 150% | Porcine cartilage in vitro, % increase, ^35 S ([3]; 10^-9 M): 490% | Porcine cartilage in vitro, % increase, dry weight ([3]; 10^-9 M): 60% | Porcine cartilage in vitro, % increase, ^3 H ([3]; 10^-10 M): 75% | Porcine cartilage in vitro, % increase, ^35 S ([3]; 10^-10 M): 410% | Porcine cartilage in vitro, % increase, dry weight ([3]; 10^-10 M): 50% | Porcine cartilage in vitro, % increase, ^3 H ([3]; 10^-11 M): 20% | Porcine cartilage in vitro, % increase, ^35 S ([3]; 10^-11 M): 95% | Porcine cartilage in vitro, % increase, dry weight ([3]; 10^-11 M): 42%

C=C1/C(=C\C=C2/CCC[C@]3(C)[C@@H]([C@H](C)CCCC(C)(C)O)CC[C@@H]23)C[C@@H](O)C[C@@H]1O [1,25-(OH)2 D3, 1α,25-dihydroxycholecalciferol, reference compound]
Body Weight (vitamin D deficient rats; [4]): 156 ± 15 gr | Serum Creatinine (vitamin D deficient rats; [4]): 0.35 ± 0.02 mg/dL | Bone Mass (vitamin D deficient rats; [4]): 296 ± 56 ^mm.spsp.3 /cm^3 | Body Weight (vitamin D deficient rats; [5]): 192 ± 4.5 gr | Serum Ca^2+ (vitamin D deficient rats; [5]): 11.87 ± 0.16 mg/dL | Serum Creatinine (vitamin D deficient rats; [5]): 0.37 ± 0.04 mg/dL | Bone Mass (vitamin D deficient rats; [5]): 156 ± 16 ^mm.spsp.3 /cm^3 | Serum Ca^2+ (vitamin D deficient rats; rat, in vivo): 11.92 ± 0.40 mg/dL | % of 1,25-(OH)2 D3 effect in rat, bone calcium mobilization (Bone Ca resorption (BCR)): 100% | Avian cartilage in vitro, % increase, dry weight ([1]; 10^-9 M): 31.8% | Avian cartilage in vitro, % increase, ^3 H proline ([1]; 10^-10 M): 122% | Avian cartilage in vitro, % increase, ^35 S ([1]; 10^-10 M): 21.8% | Avian cartilage in vitro, % increase, dry weight ([1]; 10^-10 M): 27.2% | Avian cartilage in vitro, % increase, ^3 H proline ([1]; 10^-11 M): 68.3% | Avian cartilage in vitro, % increase, ^35 S ([1]; 10^-11 M): 13.8% | Avian cartilage in vitro, % increase, dry weight ([1]; 10^-11 M): 24.1% | Avian cartilage in vitro, % increase, ^3 H proline ([1]; 10^-12 M): 46.3% | Avian cartilage in vitro, % increase, ^35 S ([1]; 10^-12 M): 8.6% | Avian cartilage in vitro, % increase, dry weight ([1]; 10^-12 M): 22.6% | % of 1,25-(OH)2 D3 effect in rat, intestinal calcium absorption [2]: 100% | Porcine cartilage in vitro, % increase, ^3 H ([3]; 10^-9 M): 300% | Porcine cartilage in vitro, % increase, ^35 S ([3]; 10^-9 M): 280% | Porcine cartilage in vitro, % increase, dry weight ([3]; 10^-9 M): 49% | Porcine cartilage in vitro, % increase, ^3 H ([3]; 10^-10 M): 0% | Porcine cartilage in vitro, % increase, ^35 S ([3]; 10^-10 M): 0% | Porcine cartilage in vitro, % increase, dry weight ([3]; 10^-10 M): 0% | Porcine cartilage in vitro, % increase, ^3 H ([3]; 10^-11 M): 0% | Porcine cartilage in vitro, % increase, ^35 S ([3]; 10^-11 M): 0% | Porcine cartilage in vitro, % increase, dry weight ([3]; 10^-11 M): 0%
